# In patent US5288709A, “Erythromycin derivatives” (priority 1991, dated 1994):
# Where two headings read alike, the source gives them in different places.
# Legend:
# [1] = system: Staphylococcus aureus (NCTC 10649); test: In-vivo acute mouse protection assay; parameters: species or system Staphylococcus aureus; female Swiss albino mice; details: Staphylococcus aureus, dosed 1 and 5 h post-infection, observed 7 days, read-out: ED50
# Method: An acute mouse protection test was conducted on ten mice with each of three concentrations of selected compounds of the invention. Each concentration was a four-fold dilution of the previous concentration. The initial concentration will vary with the microorganism with which the mouse is challenged.
# The acute mouse protection test was conducted on female, Swiss albino mice, 18-20 grams in weight. […] To check the potency of the inoculum, a titration of the indicated test organism was carried out in control animals. The titration determines the LD50 for a particular microorganism. The treatment groups of animals were dosed orally, by gavage, or subcutaneously with the test compounds at 1 and 5 hours post-infection and observed for 7 days. The ED50 were calculated using the mortality data collected.
# [2] = system: Staphylococcus aureus CMX 686B; test: In-vitro antimicrobial activity primary screen (agar dilution MIC); type: cell-based; details: CMX686B, BHI agar, 20-24 h, read-out: MIC
# How it was run: (§1)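 MIC is read as the lowest compound level yielding no growth, slight haze or sparse colonies on the inoculum spot, relative to a drug-free plate. Strains were replicator-inoculated (1:100 dilution) onto BHI agar plates holding twelve dilutions and held at 35-37 °C for 20-24 h, with erythromycin A as comparator.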
# [3] = system: Staphylococcus aureus CMX 503A; test: as above; type: cell-based; details: Staphylococcus aureus, CMX503A, 24 h, BHI agar, 20-24 h, read-out: MIC
# How it was run: as §1
# [4] = system: Staphylococcus aureus CMX 553; test: as above; type: cell-based; details: Staphylococcus aureus, CMX553, 24 h, BHI agar, 20-24 h, read-out: MIC
# How it was run: as §1
# Staphylococcus aureus 45 = test: as above; type: cell-based; details: BHI agar, 20-24 h, read-out: MIC
# How it was run: (§2)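 Growth inhibition was scored on Brain Heart Infusion agar after 20-24 h incubation at 35-37° C; the MIC is the lowest tested concentration yielding no growth, a slight haze or sparsely isolated colonies on the inoculum spot.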
# [5] = system: Pseudomonas aeruginosa K799/WT; test: as above; type: cell-based; details: Pseudomonas aeruginosa K799/WT; BHI agar, 20-24 h; read-out: MIC
# How it was run: as §2
# [6] = system: Enterobacter aerogenes ATCC 13048; test: as above; type: cell-based; details: Klebsiella aerogenes, ATCC13048; Enterobacter aerogenes ATCC 13048; BHI agar, 20-24 h; read-out: MIC
# How it was run: as §2
# [7] = system: Pseudomonas aeruginosa A5007; test: as above; type: cell-based; details: Pseudomonas aeruginosa A5007; BHI agar, 20-24 h; read-out: MIC
# How it was run: as §2
# Escherichia coli SS = test: as above; type: cell-based; details: BHI agar, 20-24 h
# How it was run: as §2
# [8] = system: Streptococcus pyrogenes 2548 INDUC; test: as above; type: cell-based; details: BHI agar, 20-24 h
# How it was run: as §2
# [9] = system: Providencia stuartii CMX 640; test: as above; type: cell-based; details: CMX640; Providencia stuartii CMX 640; BHI agar, 20-24 h; read-out: MIC
# How it was run: as §2
# [10] = system: Pseudomonas aeruginosa BMH10; test: as above; type: cell-based; details: BHI agar, 20-24 h, read-out: MIC
# How it was run: as §2
# [11] = system: Staphylococcus aureus ATCC 6538P; test: as above; type: cell-based; details: Staphylococcus aureus, ATCC6538P, 24 h, BHI agar, 20-24 h
# How it was run: as §2
# [12] = system: Enterococcus faecium ATCC 8043; test: as above; type: cell-based; details: Enterococcus faecium, ATCC8043, 24 h
# How it was run: as §2
# Escherichia coli DC-2 = test: as above; type: cell-based; details: DC2; Escherichia coli DC-2; BHI agar, 20-24 h; read-out: MIC
# How it was run: as §2
# [13] = system: Pseudomonas aeruginosa K799/61; test: as above; type: cell-based; details: Pseudomonas aeruginosa K799/61, BHI agar, 20-24 h
# How it was run: as §2
# Acinetobacter SP CMX 669 = test: as above; type: cell-based; details: Acinetobacter, SPCMX669, 24 h
# How it was run: as §2
# [14] = system: Micrococcus luteus ATCC 4698; test: as above; type: cell-based; details: Micrococcus luteus, ATCC4698, 24 h, BHI agar, 20-24 h
# How it was run: as §2
# Escherichia coli H560 = test: as above; type: cell-based; details: Escherichia coli H560; BHI agar, 20-24 h; read-out: MIC
# How it was run: as §2
# Escherichia coli JUHL = test: as above; type: cell-based; details: Escherichia coli JUHL; BHI agar, 20-24 h; read-out: MIC
# How it was run: as §2
# [15] = system: Streptococcus agalactiae CMX 508; test: as above; type: cell-based; details: 20-24 h
# How it was run: as §2
# Pseudomonas cepacia 2961 = test: as above; type: cell-based; details: Burkholderia cepacia, BHI agar, 20-24 h, read-out: MIC
# How it was run: as §2
# [16] = system: Streptococcus bovis A5169; test: as above; type: cell-based; details: Streptococcus equinus, BHI agar, 20-24 h, read-out: MIC
# How it was run: as §2
# [17] = system: Staphylococcus aureus A5177; test: as above; type: cell-based; details: Staphylococcus aureus A5177, BHI agar, 20-24 h
# How it was run: as §2
# [18] = system: Staphylococcus epidermidis 3519; test: as above; type: cell-based; details: BHI agar, 20-24 h, read-out: MIC
# How it was run: as §2
# [19] = system: Staphylococcus aureus 45 RAR2; test: as above; type: cell-based; details: Staphylococcus aureus, 45RAR2, 24 h, BHI agar, 20-24 h
# How it was run: as §2
# [20] = system: Klebsiella pneumoniae ATCC 8045; test: as above; type: cell-based; details: Klebsiella pneumoniae ATCC 8045, BHI agar, 20-24 h
# How it was run: as §2
# [21] = system: Streptococcus pyrogenes EES61; test: as above; type: cell-based; details: BHI agar, 20-24 h
# How it was run: as §2
# [22] = system: Micrococcus luteus ATCC 9341; test: as above; type: cell-based; details: 20-24 h
# How it was run: as §2
# [23] = NCTC10649, sc, 168 h, subcutaneous
Compound,"ED50 ([1]; NCTC10649, 168 h, oral) [mg/kg]","ED50 [1, 23] [mg/kg]",MIC [2] [mg/L],MIC [3] [mg/L],MIC [4] [mg/L],MIC (Staphylococcus aureus 45) [mg/L],MIC [5] [mg/L],MIC [6] [mg/L],MIC [7] [mg/L],MIC [9] [mg/L],MIC [10] [mg/L],MIC [11] [mg/L],MIC [12] [mg/L],MIC (Escherichia coli DC-2) [mg/L],MIC [14] [mg/L],MIC (Escherichia coli H560) [mg/L],MIC (Escherichia coli JUHL) [mg/L],MIC (Pseudomonas cepacia 2961) [mg/L],MIC [16] [mg/L],MIC [18] [mg/L],also measured
"CC[C@H]1OC(=O)[C@H](C)[C@@H](O[C@H]2C[C@@](C)(OC)[C@@H](O)[C@H](C)O2)[C@H](C)[C@@H](O[C@@H]2O[C@H](C)C[C@H](N(C)C)[C@H]2O)[C@](C)(O)C[C@@H](C)[C@@H]2O[C@@]1(C)[C@@H](N)[C@H]2C [Example 19, (9S,11S)-11-Amino-9-deoxo-11,12-deoxy-9,12-epoxyerythromycin A]",75.4,20.7,0.2,0.2,0.2,0.2,100,100,> 100,> 100,50,0.2,0.05,50,0.1,6.2,> 100,> 100,0.1,0.2,"MIC (Escherichia coli SS; read-out: MIC): 0.78 mg/L; MIC ([8]; Streptococcus, 2548INDUC, 24 h): 3.1 mg/L; MIC ([13]; read-out: MIC): 0.78 mg/L; MIC (Acinetobacter SP CMX 669): 1.56 mg/L; MIC ([15]; CMX508, BHI agar, read-out: MIC): 0.02 mg/L; MIC ([17]; read-out: MIC): 0.39 mg/L; MIC [19]: 0.39 mg/L; MIC ([20]; Klebsiella pneumoniae, ATCC8045, 24 h): 25 mg/L; MIC ([21]; read-out: MIC): < 0.005 mg/L; MIC ([22]; ATCC9341, BHI agar, read-out: MIC): 0.01 mg/L"
"CC[C@H]1OC(=O)[C@H](C)[C@@H](O[C@H]2C[C@@](C)(OC)[C@@H](O)[C@H](C)O2)[C@H](C)[C@@H](O[C@@H]2O[C@H](C)C[C@H](N(C)C)[C@H]2O)[C@](C)(O)C[C@@H](C)[C@@H]2O[C@@]1(C)C(=O)[C@H]2C [Example 5, (9S)-9-Deoxo-11,12-dideoxy-9,12-epoxy-11-oxoerythromycin A]",25.2,22.6,0.39,0.2,0.1,0.1,100,> 100,> 100,> 100,100,0.39,0.1,> 100,0.1,100,100,100,0.1,0.2,"MIC (Escherichia coli SS; Escherichia coli, 24 h): 0.2 mg/L; MIC ([8]; read-out: MIC): 1.56 mg/L; MIC ([13]; Pseudomonas aeruginosa, K799/61, 24 h): 1.56 mg/L; MIC (Acinetobacter SP CMX 669; Acinetobacter SP CMX 669, BHI agar, 20-24 h): 12.5 mg/L; MIC ([15]; Streptococcus agalactiae, CMX508, 24 h, BHI agar): 0.1 mg/L; MIC ([17]; Staphylococcus aureus, A5177, 24 h): 3.1 mg/L; MIC [19]: 0.2 mg/L; MIC ([20]; ATCC8045, read-out: MIC): > 100 mg/L; MIC ([21]; Streptococcus, EES61, 24 h): < 0.05 mg/L; MIC ([22]; Micrococcus luteus, ATCC9341, 24 h, BHI agar): < 0.05 mg/L"
